The values that follow come from patent US10759740B2, “Antibacterial agents” (Rutgers, The State University of New Jersey, priority 2016, dated 2020).

Assay [1] has as its system Lactobacillus gasseri ATCC 33323. As to the kind of experiment: MIC broth microdilution (Example 3). The format is cell-based. The note with it: planktonic. The procedure:
(§1) G. vaginalis ATCC 14019 strain was grown overnight in Brain Heart Infusion broth (Difco, Sparks, Md.) supplemented with 3% horse serum (sBHI) (JRH Biosciences, KS), while BHI supplemented with 1% glucose (BHIG) was used for biofilm formation assays. Each experiment using G. vaginalis was performed anaerobically (10% hydrogen, 5% carbon dioxide, and 85% nitrogen) within anaerobic glove boxes (Coy Laboratory Products, Inc., Grass Lake, Mich., USA). Three species of vaginal Lactobacillus were used in this study to evaluate the possible harmful effects of CAms on beneficial bacteria: Lactobacillus plantarum ATCC 39268, Lactobacillus rhamnosus 160 (provided by Dr. Aroutcheva, Rush University Medical Center) and Lactobacillus gasseri ATCC 33323; all were grown for 18-24 h in DeMan, Rogosa and Sharpe broth (MRS Difco B D, Franklin Lakes, N.J., USA) under aerobic conditions at 37° C. For lactobacilli biofilm formation, MRS broth supplemented with 1% glucose and 2% sucrose (Fisher Scientific, Waltham, Mass., USA) was utilized.
(§2) To prepare a stock solution, the CAm compounds were dissolved in ddH2O and incubated at 37° C. with shaking at 250 rpm for 10 min. Then, the solution was serially diluted twofold with sBHI broth to determine the MIC and with BHIG broth to identify the MIC-B/MBC-B against planktonic and biofilm cells, respectively.
(§3) According to Clinical and Laboratory Standards Institute (CLSI 2010), the MIC is defined as the lowest concentration of antimicrobial compound producing no visible growth or complete inhibition of bacterial growth during 24 h. To determine MIC values, the broth microdilution assay was performed according to Algburi et al. (Algburi et al., 2015. Path Dis 73(5)) with minor modifications. Briefly, the overnight-grown cells were diluted with their suitable culture medium to approach ˜10^6 CFU/ml. The number of bacterial cells was identified using spot plate method (Turovskiy et al., 2012. Infect Dis Obstet Gynecol 2012:284762). The CAms were serially diluted twofold with sBHI into a non-tissue culture 96-well microplate plate (Falcon, Corning Incorporated, Corning, N.Y., USA) resulting in a final volume of 100 μl for each well. Aliquots of 100 μl of the diluted cell suspension (˜10^6 CFU/ml) were added to each well of a microplate that was treated with different concentrations of CAms. To avoid culture medium evaporation, 75 μl of mineral oil (Sigma-Aldrich, St. Louis, Mo.) was added to each treated well. The microplate was then transferred to the plate reader (Model 550, Bio-Rad Laboratories, Hercules, Calif., USA) and incubated at 37° C. for 24-36 h. The kinetic reading was statistically analyzed, and the MIC and sub-MIC of each CAm compound were determined.
Background: Dilution methods test growth across graded concentrations, often in twofold steps.

Assay [2] has as its system Lactobacillus plantarum ATCC 39268. As to the kind of experiment: MIC broth microdilution (Example 3). The format is cell-based. Particulars: planktonic. The procedure:
as §1, §2, §3

For assay [3], the system named is Lactobacillus rhamnosus 160. As to the kind of experiment: MIC broth microdilution (Example 3). Particulars: planktonic. The format is cell-based. The procedure: as §1, §2, §3
In assay [4] the test system is G. vaginalis pre-formed biofilm. As to the kind of experiment: Minimum biofilm bactericidal concentration (MBC-B). The format is cell-based, Gardnerella vaginalis. Particulars: 24 h, ≥3 log reduction. The protocol:
This assay was performed according to Algburi et al. (Algburi et al., 2015. Path Dis 73(5)) with minor modifications: the overnight-grown G. vaginalis was diluted to approximately 10^7 CFU/ml. For the biofilm formation assay, aliquots of 200 μl were added into a 96-well tissue culture microplate, sealed by amplification tape (Nalge Nunc International, Rochester, N.Y., USA) and incubated for 24-36 h at 37° C. After incubation, the planktonic cells were removed by gently washing the biofilm twice with 200 μl of fresh broth. The biofilm was then treated with 200 μl of a predetermined concentration of the tested compound. The microplate was incubated for 24 h at 37° C. under anaerobic conditions. After incubation, the antimicrobials (supernatant) were discarded and the biofilm was washed twice with fresh BHIG broth. The biofilm was then disrupted by vigorous pipetting, in order to determine the number of biofilm-associated cells using the spot plate method.

Assay [5] concerns L. monocytogenes pre-formed biofilms. As to the kind of experiment: MBC-B against pre-formed biofilms (Example 2). The format is cell-based. Particulars: pre-formed biofilm, ≥3 log reduction in viable cells. The procedure: (§4) The minimum biofilm bactericidal concentrations (MBC-Bs) of the cationic amphiphiles against pre-formed biofilms of L. monocytogenes and G. vaginalis were identified. The biofilms of the two targeted microorganisms were grown in 96-well plates according to established methodology for Gram-positive and Gram-variable bacteria (Tabak et al., FEMS microbiology letters. 2009; 301(1):69-76). To identify the reduction in the number of biofilm-associated viable cells treated with different concentrations of cationic amphiphiles, the spot plate method was used (Turovskiy et al., Infectious diseases in obstetrics and gynecology. 2012; 2012:284762, 9 pages). In brief, biofilms were washed, disrupted, diluted 10^1-10^8 times with fresh medium and the samples plated on suitable solid medium.

Assay [6] concerns G. vaginalis pre-formed biofilms. As to the kind of experiment: MBC-B against pre-formed biofilms (Example 2). The format is cell-based. The note with it: pre-formed biofilm, ≥3 log reduction in viable cells. The protocol: as §4
In the next assay the test system is S. aureus. As to the kind of experiment: SEM and TEM of treated bacteria. Particulars: at MIC, 1 h. The format is cell-based, Staphylococcus aureus. The procedure: (§5) Bacteria were grown to the mid-exponential growth phase. Silicon wafers were submerged in the bacterial solutions in the presence or absence of CAMs at their respective MICs and incubated for 1 h. 0.25% glucose was added to facilitate attachment. The bacteria on wafers were fixed in 2.5% glutaraldehyde for 1 h at room temperature, washed three times with PBS, and postfixed 1% osmium tetroxide. The samples were then dehydrated in a graded series of ethanol solutions (50%, 70%, 80%, 95%, 100%), dried with graded hexamethyldisilazane (50%, 100%), and left to air dry for two days. After drying, the wafers were mounted on stub and sputter-coated with 20 nm gold prior to inspection under microscope (Zeiss Sigma Field Emission SEM, Carl Zeiss, Ontario, Calif.) at 5 kV.
(§6) Bacteria were grown as described above for SEM sample preparation. In brief, bacteria were incubated in the presence or absence of CAMs at their respective MICs for 1 h. After centrifugation at 500×g for 10 min, the resulting pellet was fixed in 2.5% glutaraldehyde, washed three times with PBS, and postfixed with 1% osmium tetroxide. The samples were then dehydrated with graded ethanol series (50%, 70%, 80%, 95%, 100%) and embedded in epoxy resin (Dr. Spurr's kit, Electron Microscopy Sciences, Hatfield, Pa.). Ultrathin sections of the cells were stained with 1% uranyl acetate. […]

For assay [7], the system named is G. vaginalis pre-formed biofilms. As to the kind of experiment: Biofilm removal (FIG. 5). The format is cell-based. The note with it: 250 μg/mL against pre-formed biofilms.
The test system of a further assay is E. coli. As to the kind of experiment: SEM and TEM of treated bacteria. The note with it: at MIC, 1 h. The format is cell-based, Escherichia coli. The procedure:
as §5, §6

Molecules are shown by their SMILES.

Take `CCCCCCCC(=O)OC(C(=O)NCCN)C(OC(=O)CCCCCCC)C(=O)NCCN.Cl.Cl` (stereo not shown) [8a]: the “MIC L. gasseri” value in [1] is 55.9 µM. Also, the “MIC L. plantarum” value in [2] was determined as 223 µM. In assay [3], the “MIC L. rhamnosus” value is 111.6 µM. Besides, the “MBC-B G. vaginalis” value in [4] came out at 117.6 µM.

On to `CCCCCCCCCCOC(C(=O)NCCN)C(OCCCCCCCCCC)C(=O)NCCN.Cl.Cl` (stereo not shown) [5b], for which, in [1], the “MIC L. gasseri” value was 4.4 µM. For the same molecule, the “MIC L. plantarum” value in assay [2] was 25.7 µM. In addition, in assay [3], the “MIC L. rhamnosus” value was 13.3 µM. Moreover, the “MBC-B, L. monocytogenes” value in [5] is recorded as “approximately 250 μg/mL”. In addition, the “MBC-B G. vaginalis” value in [6] is “approximately 31.25 μg/mL”; in assay [4], 425.6 µM. In addition, the “ultrastructural changes (TEM)” value is given as “profound internal damage” with S. aureus and “extensive ultrastructural damage” with E. coli. The “removal of biofilm structures” value in assay [7] is on record as “up to 70%”.

In the case of `CCCCCCCCCC(=O)OC(C(=O)NCCN)C(OC(=O)CCCCCCCCC)C(=O)NCCN.Cl.Cl` (stereo not shown) [8b], the “MIC L. gasseri” value in [1] was 12.7 µM. Further, the “MIC L. plantarum” value in assay [2] came to 33.3 µM. Also, in assay [3], the “MIC L. rhamnosus” value was 12.7 µM. The “MBC-B, L. monocytogenes” value in assay [5] was “approximately 250 μg/mL”. For the same molecule, the “MBC-B G. vaginalis” value in [6] is “approximately 31.25 μg/mL”; in assay [4] it was 425.6 µM.
